Assays:
α2A-AR = molecular target: T1, α2A-AR (Homo sapiens, UniProt P08913); experiment: α2A-AR antagonist assay (calcium flux, Fluo-4, FlexStation II); type: cell-based; details: antagonistic activity against agonist UK14304 in cells stably expressing α2A-AR/Ga16
T1 construct: expressed in transfected cells; stably expressing α2A-AR/Gα16
T1 sequence (P08913 1-465): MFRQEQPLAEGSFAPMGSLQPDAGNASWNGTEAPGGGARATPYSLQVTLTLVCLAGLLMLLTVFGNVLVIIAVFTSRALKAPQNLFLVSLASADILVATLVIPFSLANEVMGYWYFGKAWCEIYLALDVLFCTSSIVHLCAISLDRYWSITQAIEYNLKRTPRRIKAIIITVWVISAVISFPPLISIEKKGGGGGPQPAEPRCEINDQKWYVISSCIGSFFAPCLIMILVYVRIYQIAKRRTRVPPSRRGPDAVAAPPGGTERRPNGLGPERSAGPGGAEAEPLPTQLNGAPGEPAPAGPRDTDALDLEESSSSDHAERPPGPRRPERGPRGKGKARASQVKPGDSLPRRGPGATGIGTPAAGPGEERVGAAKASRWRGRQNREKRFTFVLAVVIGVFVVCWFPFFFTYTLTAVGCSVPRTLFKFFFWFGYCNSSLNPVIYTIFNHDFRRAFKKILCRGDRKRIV
Text: By establishing a cell line co-transfected with the target receptor and Ga16, the receptor can be activated to cause the activation of Gα16 protein, which in turn activates phospholipase C (PLC) to produce IP3 and DAG. IP3 can bind to the IP3 receptors on the endoplasmic reticulum and mitochondria in the cell, thereby causing the release of intracellular calcium. Therefore, measuring the changes in intracellular calcium can be used as a method to detect the activation state of the target receptor. Fluo-4/AM is a calcium fluorescent probe indicator used to measure calcium ions. As a non-polar lipid-soluble compound, after entering the cell, the AM group dissociates under the action of cell lipases and releases Fluo-4; since Fluo-4 is a polar molecule that is not easy to pass through the lipid bilayer membrane, it can keep in the cell for a long time. Finally, the level of Ga protein activation can be reflected by measuring the excited fluorescence intensity.
Before the test, the test compound was dissolved in DMSO to prepare a stock solution, which was diluted with culture medium to the required concentration when used.

[1] = Tissue distribution test in mice; type: in vivo; details: gavage 10 mg/kg
Procedure: Mice were fasted for more than 12 h and had free access to water. Table 3 Experimental Scheme for tissue distribution of Compound C27 in mice
Mice were fasted for more than 12 h and had free access to water.
• (1) Tissue distribution test in mice: The animals in each group were anesthetized and killed 2 h after administration. The brain, pancreas, heart, liver, and kidney tissues were collected by dissection, washed with physiological saline, and stored in a -20 °C refrigerator for testing. At the same time, 0.3 mL of whole blood was collected and placed in an EDTA-K2 anticoagulant tube. The blood was separated by centrifugation at 11,000 rpm for 5 min and stored in a -20 °C refrigerator for testing.
The concentration of unchanged drug in plasma and tissues was determined.
(2) Tissue distribution test of compound C27 in mice: At corresponding time points (0.25, 2 and 8 h) after gavage administration, mice were bled to death through the abdominal aorta. Brain, heart, liver, lung, pancreas and kidney tissues were immediately collected by dissection, and part of the plasma was collected. The operation was carried out in an ice water bath.
Centrifugation conditions: 11000 rpm for 5 min to separate plasma (about 200 µL).

[2] = relative ratio of tissue distribution concentration to blood concentration

Question: With `O[C@H]1CC[C@H]2CN3CCc4c([nH]c5ccccc45)[C@@H]3C[C@@H]2[C@H]1c1nc(Cc2cccc(OC(F)(F)F)c2)no1` [Compound C32] as the molecule, how does the IC50 (α2A-AR) read?
Answer: Its IC50 is under 0.1 µM.

Question: With `O[C@H]1CC[C@H]2CN3CCc4c([nH]c5ccccc45)[C@@H]3C[C@@H]2[C@H]1c1nc(-c2ccncc2)no1` [Compound C24] as the molecule, how does the IC50 (α2A-AR) read?
Answer: Its IC50 is 0.5 to 2 µM.

Question: With `O[C@H]1CC[C@H]2CN3CCc4c([nH]c5ccccc45)[C@@H]3C[C@@H]2[C@H]1c1nc(Cc2cccc(F)c2)no1` [Compound C8] as the molecule, how does the IC50 (α2A-AR) read?
Answer: The IC50 was 0.3 to 0.5 µM.

Question: Which IC50 (α2A-AR) does the source give for `CN(C)C(=O)c1ccc(Cc2noc([C@@H]3[C@H]4C[C@H]5c6[nH]c7ccccc7c6CCN5C[C@@H]4CC[C@@H]3O)n2)cc1` [Compound C35] here?
Answer: Its IC50 is 0.1 to 0.3 µM.

Question: Which IC50 (α2A-AR) does the source give for `N#Cc1ccccc1Cc1noc([C@@H]2[C@H]3C[C@H]4c5[nH]c6ccccc6c5CCN4C[C@@H]3CC[C@@H]2O)n1` [Compound C17] here?
Answer: Its IC50 is 0.1 to 0.3 µM.

Question: Which IC50 (α2A-AR) does the source give for `O[C@H]1CC[C@H]2CN3CCc4c([nH]c5ccccc45)[C@@H]3C[C@@H]2[C@H]1c1nc(Cc2ccccc2F)no1` [Compound C7] here?
Answer: Its IC50 is 0.5 to 2 µM.

Question: With `O=C(O)c1ccc(Cc2noc([C@@H]3[C@H]4C[C@H]5c6[nH]c7ccccc7c6CCN5C[C@@H]4CC[C@@H]3O)n2)cc1` [Compound C30] as the molecule, how does the IC50 (α2A-AR) read?
Answer: Its IC50 is 0.3 to 0.5 µM.

Question: With `CN(C)c1cccc(Cc2noc([C@@H]3[C@H]4C[C@H]5c6[nH]c7ccccc7c6CCN5C[C@@H]4CC[C@@H]3O)n2)c1` [Compound C34] as the molecule, how does the IC50 (α2A-AR) read?
Answer: The IC50 was 0.1 to 0.3 µM.

Question: Which IC50 (α2A-AR) does the source give for `COCc1noc([C@@H]2[C@H]3C[C@H]4c5[nH]c6ccccc6c5CCN4C[C@@H]3CC[C@@H]2O)n1` [Compound C22] here?
Answer: The IC50 was 0.1 to 0.3 µM.

Question: For `O[C@H]1CC[C@H]2CN3CCc4c([nH]c5ccccc45)[C@@H]3C[C@@H]2[C@H]1c1nc(CCc2ccccc2)no1` [Compound C3], which IC50 (α2A-AR) is on record?
Answer: The IC50 was 0.1 to 0.3 µM.

Question: Which IC50 (α2A-AR) does the source give for `O[C@H]1CC[C@H]2CN3CCc4c([nH]c5ccccc45)[C@@H]3C[C@@H]2[C@H]1c1nc(Cc2cccc(C(F)(F)F)c2)no1` [Compound C33] here?
Answer: Its IC50 is 0.1 to 0.3 µM.

Question: Which IC50 (α2A-AR) does the source give for `O[C@H]1CC[C@H]2CN3CCc4c([nH]c5ccccc45)[C@@H]3C[C@@H]2[C@H]1c1nc(Cc2c(Cl)cccc2Cl)no1` [Compound C12] here?
Answer: The IC50 was 0.1 to 0.3 µM.

Question: With `O[C@H]1CC[C@H]2CN3CCc4c([nH]c5ccccc45)[C@@H]3C[C@@H]2[C@H]1c1nc(Cc2ccccc2Br)no1` [Compound C14] as the molecule, how does the IC50 (α2A-AR) read?
Answer: The IC50 was under 0.1 µM.

Question: With `O[C@H]1CC[C@H]2CN3CCc4c([nH]c5ccccc45)[C@@H]3C[C@@H]2[C@H]1c1nc(Cc2ccccc2)no1` [Compound C1] as the molecule, how does the IC50 (α2A-AR) read?
Answer: The IC50 was under 0.1 µM.

Question: And the “brain tissue distribution compared with yohimbine” value [1, 2]?
Answer: The value was “lower brain tissue distribution than yohimbine”.

Question: With `O[C@H]1CC[C@H]2CN3CCc4c([nH]c5ccccc45)[C@@H]3C[C@@H]2[C@H]1c1nc(Cc2ccc(Br)cc2)no1` [Compound C16] as the molecule, how does the IC50 (α2A-AR) read?
Answer: Its IC50 is 0.5 to 2 µM.

Question: With `O[C@H]1CC[C@H]2CN3CCc4c([nH]c5ccccc45)[C@@H]3C[C@@H]2[C@H]1c1nc(C2CCCCC2)no1` [Compound C25] as the molecule, how does the IC50 (α2A-AR) read?
Answer: The IC50 was 0.3 to 0.5 µM.

Question: With `N#Cc1cccc(Cc2noc([C@@H]3[C@H]4C[C@H]5c6[nH]c7ccccc7c6CCN5C[C@@H]4CC[C@@H]3O)n2)c1` [Compound C18] as the molecule, how does the IC50 (α2A-AR) read?
Answer: The IC50 was under 0.1 µM.

Question: With `CC(c1ccccc1)c1noc([C@@H]2[C@H]3C[C@H]4c5[nH]c6ccccc6c5CCN4C[C@@H]3CC[C@@H]2O)n1` (some centres unmarked) [Compound C2] as the molecule, how does the IC50 (α2A-AR) read?
Answer: Its IC50 is 0.3 to 0.5 µM.

Question: Which IC50 (α2A-AR) does the source give for `COC(=O)c1ccc(Cc2noc([C@@H]3[C@H]4C[C@H]5c6[nH]c7ccccc7c6CCN5C[C@@H]4CC[C@@H]3O)n2)cc1` [Compound C29] here?
Answer: The IC50 was 0.1 to 0.3 µM.

Question: With `CN(C)S(=O)(=O)c1ccc(Cc2noc([C@@H]3[C@H]4C[C@H]5c6[nH]c7ccccc7c6CCN5C[C@@H]4CC[C@@H]3O)n2)cc1` [Compound C28] as the molecule, how does the IC50 (α2A-AR) read?
Answer: Its IC50 is under 0.1 µM.

Question: Which IC50 (α2A-AR) does the source give for `O[C@H]1CC[C@H]2CN3CCc4c([nH]c5ccccc45)[C@@H]3C[C@@H]2[C@H]1c1nc(Cc2ccccc2Cl)no1` [Compound C10] here?
Answer: The IC50 was 0.5 to 2 µM.

Question: For `O[C@H]1CC[C@H]2CN3CCc4c([nH]c5ccccc45)[C@@H]3C[C@@H]2[C@H]1c1nc(CN2CCOCC2)no1` [Compound C20], which IC50 (α2A-AR) is on record?
Answer: Its IC50 is 0.1 to 0.3 µM.

Question: With `O[C@H]1CC[C@H]2CN3CCc4c([nH]c5ccccc45)[C@@H]3C[C@@H]2[C@H]1c1nc(Cc2cccc(Cl)c2)no1` [Compound C11] as the molecule, how does the IC50 (α2A-AR) read?
Answer: Its IC50 is 0.5 to 2 µM.

Question: For `O[C@H]1CC[C@H]2CN3CCc4c([nH]c5ccccc45)[C@@H]3C[C@@H]2[C@H]1c1nc(Cc2ccc(F)cc2)no1` [Compound C9], which IC50 (α2A-AR) is on record?
Answer: The IC50 was 0.5 to 2 µM.

Question: Which IC50 (α2A-AR) does the source give for `COc1cccc(Cc2noc([C@@H]3[C@H]4C[C@H]5c6[nH]c7ccccc7c6CCN5C[C@@H]4CC[C@@H]3O)n2)c1` [Compound C5] here?
Answer: The IC50 was 0.1 to 0.3 µM.

Question: With `O[C@H]1CC[C@H]2CN3CCc4c([nH]c5ccccc45)[C@@H]3C[C@@H]2[C@H]1c1nc(Cc2nc3ccccc3o2)no1` [Compound C31] as the molecule, how does the IC50 (α2A-AR) read?
Answer: The IC50 was 0.3 to 0.5 µM.

Question: Which IC50 (α2A-AR) does the source give for `COc1ccc(Cc2noc([C@@H]3[C@H]4C[C@H]5c6[nH]c7ccccc7c6CCN5C[C@@H]4CC[C@@H]3O)n2)cc1` [Compound C6] here?
Answer: The IC50 was under 0.1 µM.

Question: And the “brain tissue distribution compared with yohimbine” value [1, 2]?
Answer: The value was “lower brain tissue distribution than yohimbine”.

Question: Which IC50 (α2A-AR) does the source give for `O[C@H]1CC[C@H]2CN3CCc4c([nH]c5ccccc45)[C@@H]3C[C@@H]2[C@H]1c1nc(Cc2cccc(Br)c2)no1` [Compound C15] here?
Answer: The IC50 was under 0.1 µM.

Question: For `COc1ccccc1Cc1noc([C@@H]2[C@H]3C[C@H]4c5[nH]c6ccccc6c5CCN4C[C@@H]3CC[C@@H]2O)n1` [Compound C4], which IC50 (α2A-AR) is on record?
Answer: Its IC50 is 0.5 to 2 µM.

Question: What does the source list for `O[C@H]1CC[C@H]2CN3CCc4c([nH]c5ccccc45)[C@@H]3C[C@@H]2[C@H]1c1nc(Cc2ccc(Cl)c(Cl)c2)no1` [Compound C13]?
Answer: IC50 (α2A-AR): 0.5 to 2 µM; brain tissue distribution compared with yohimbine [1, 2]: lower brain tissue distribution than yohimbine

Question: For `O[C@H]1CC[C@H]2CN3CCc4c([nH]c5ccccc45)[C@@H]3C[C@@H]2[C@H]1c1nc(-c2ccccc2)no1` [Compound C23], which IC50 (α2A-AR) is on record?
Answer: Its IC50 is 0.3 to 0.5 µM.

Question: For `O[C@H]1CC[C@H]2CN3CCc4c([nH]c5ccccc45)[C@@H]3C[C@@H]2[C@H]1c1nc(CC2CC2)no1` [Compound C21], which IC50 (α2A-AR) is on record?
Answer: The IC50 was 0.5 to 2 µM.

Question: Which IC50 (α2A-AR) does the source give for `NC(=O)c1ccc(Cc2noc([C@@H]3[C@H]4C[C@H]5c6[nH]c7ccccc7c6CCN5C[C@@H]4CC[C@@H]3O)n2)cc1` [Compound C27] here?
Answer: Its IC50 is under 0.1 µM.

Question: And the pancreatic distribution [1]?
Answer: The pancreatic distribution was “pancreatic distribution characteristics comparable to those of compound C19”.

Question: What about the plasma exposure ([1]; compared with yohimbine) of the same molecule?
Answer: Its plasma exposure is “equivalent to that of yohimbine”.

Question: What about the “brain tissue distribution compared with yohimbine” value [1, 2] of the same molecule?
Answer: The value was “lower brain tissue distribution than yohimbine”.

Question: What about the “brain tissue distribution, times lower than that of yohimbine” value [1, 2] of the same molecule?
Answer: Its value is “about two hundred and seventy times lower”.

Question: Which IC50 (α2A-AR) does the source give for `Cc1noc([C@@H]2[C@H]3C[C@H]4c5[nH]c6ccccc6c5CCN4C[C@@H]3CC[C@@H]2O)n1` [Compound C26] here?
Answer: Its IC50 is 0.1 to 0.3 µM.

Reference: EP4624470A1, “YOHIMBINE DERIVATIVE, AND PREPARATION METHOD THEREFOR AND PHARMACEUTICAL COMPOSITION AND USE THEREOF” (Shanghai Institute of Materia Medica, Chinese Academy of …, priority 2022, dated 2024)
